Measured values published in US20010034330A1, “Innate immunity-stimulating compositions of CpG and saponin and methods thereof” (priority 1998, published 2001).

Experiments:
[1] = system: YAC-1 cells; experiment: Natural killer cell activity: 51Cr release lysis of YAC-1 target cells by splenocytes of treated mice; type: in vivo, Balb/c mice; settings: for NK cell response (lysis of YAC-1 cells): Example 1, FIG. 1, 10 ug each, subcutaneous, days 1 and 2; for NK cell response (lysis of YAC-1 cells) / NK activity, dose response: splenocytes day 3; for NK cell activity compared with QS-7 at an equivalent dose / NK activity, dose response: Example 3, FIG. 3, 3, 10, 30 ug s.c. day 1 and day 2
Experimental: Assessment of natural killer cell activity was carried out by an adaptation of a published method (Hashimoto et al., J. Immunol. 163: 583 (1999)). Balb/c mice (4 per group, female, 8-10 weeks of age) were administered one of five different candidate compositions at days 1 and 2. The compositions evaluated were (1) saline (negative control), (2) 10 ug QS-21, (3) 10 ug CpG (sequence 1826), (4) 0.5 ug murine IL-12 (positive control for NK cell activation), and (5) a combination of 10 ug QS-21 and 10 ug CpG in 0.2 ml saline. All test compositions were administered subcutaneously except for murine IL-12, which was administered intraperitoneally. Splenocytes were removed from the mice at day 3 for use as effector cells in the natural killer cell assay. Such cells were immediately used in a standard ^51Cr release lysis assay. YAC-1 cells (loaded with ^51Cr) were used as target cells. The lysis of this NK cell-sensitive line is indicative of NK cell activation in the splenocyte population.
The time dependence of the administration of CpG/QS-21 on natural killer cell activation was investigated. Balb/c mice (5 per group, female, 8-10 weeks of age) were administered a mixture of 10 ug QS-21 and 10 ug CpG sequence 1826 in a total volume of 0.2 ml by subcutaneous route seven days before (−7d), three days before (−3d), two days before (−2d), and one day before (−1d) assay of natural killer cell activity. Splenocytes were removed from the mice at day 0 for use as effector cells in the natural killer cell assay. YAC-1 cells (loaded with ^51Cr) were used as target cells. Natural killer cell lysis was apparent if the formulation of QS-21/CpG was administered one, two, or three days prior to the assay, but not if the formulation was administered seven days prior to the assay (FIG. 2). This confirms the transient nature of the natural killer cell activity.
Balb/c mice (5 per group, female, 8-10 weeks of age) were administered individually QS-7, QS-21, or CpG sequence 1826 at three different dose levels (3, 10, 30 ug) to determine a dose response curve for these individual compounds. The compositions evaluated were (1) saline (negative control), (2) 3 ug QS-21, (3) 10 ug QS-21, (4) 30 ug QS-21, (5) 3 ug QS-7(6) 10 ug QS-7, (7) 30 ug QS-7, (8) 3 ug sequence CpG 1826, (9) 10 ug CpG sequence 1826, and (10) 30 ug CpG sequence 1826. All test compositions were administered subcutaneously at day 1 and day 2. Splenocytes were removed from the mice at day 3 for use as effector cells in the natural killer cell assay. YAC-1 cells (loaded with ^51Cr) were used as target cells.
This experiment evaluated the natural killer cell stimulating activity induced by various formulations: (1) QS-21 (10 ug), (2) QS-7 (10 ug), (3) CpG sequence 1826 (10 ug), (4) CpG sequence 2006 (10 ug), (5) QS-21 (10 ug)+CpG sequence 1826 (10 ug), (6) QS-21 (10 ug)+CpG 2006 (10 ug), (7) QS-7 (10 ug)+CpG sequence 1826 ( […]), (8) QS-7 (10 ug) +CpG sequence 2006 (10 ug), (9) QS-7 (10 ug) and QS-21 (10 ug) and (10) saline. Balb/c mice (5 per group, female, 8-10 weeks of age) were administered the above formulations by subcutaneous route on day 1 and day 2. Splenocytes were removed from the mice at day 3 for use as effector cells in the natural killer cell assay. YAC-1 cells (loaded with ^51Cr) were used as target cells.

[2] = system: Listeria monocytogenes strain 10403s; experiment: Listeria monocytogenes challenge model (spleen colony counts); type: in vivo, Balb/c mice; settings: Example 5, FIG. 5; given day 0, i.p. challenge with 10^5 colonies day 3, spleens 96 hours after challenge; versus saline, p<0.05 for the two lowest groups
Experimental: Balb/mice (5 per group, female, 8-10 weeks of age) were administered the following formulations on day 0: Group 1: saline, subcutaneous route. Group 2: 10 ug QS-21 and 10 ug of CpG sequence 1826, subcutaneous route. Group 3: 10 ug QS-21, subcutaneous route. Group 4: 10 ug CpG sequence 1826, subcutaneous route. Group 5: 0.5 ug recombinant murine IL-12, intraperitoneal route. A total volume of 0.2 ml was administered. On day 3, mice were challenged by the intraperitoneal route with 10^5 colonies of Listeria monocytogenes strain 10403s. Spleens were removed at 96 hours after challenge, homogenized, and then cultured in serial 10-fold dilutions overnight on agar plates. Listeria monocytogenes colonies were counted, the number of organisms per spleen determined, and then the geometric mean and standard error were determined for each group. A two-tailed, paired student's t-test of the log10 colonies/spleen was used to show statistical significance.

Row | Substance | NK cell response (lysis of YAC-1 cells) [1] | NK cell activity compared with QS-7 at an equivalent dose [1] | NK activity, dose response [1] | Listeria monocytogenes colony count in spleen [2]
1 | QS-21 | higher than CpG and that was nearly equivalent to the positive control, murine IL-12 | higher than that induced by QS-7 | enhance NK activity in a dose dependent fashion | lowest colony counts
2 | TCCATGACGTTCCTGACGTT [CpG sequence 1826] | slightly enhanced the NK cell activity | higher than that induced by QS-7 | enhance NK activity in a dose dependent fashion | –
